The text below walks through data of ChEMBL document CHEMBL2417447, “Synthesis and binary QSAR study of antitubercular quinolylhydrazides” (2013).

A value given as a limit tells only on which side of the number the result lay.

Experiment [1] concerns Mycobacterium tuberculosis. Briefly: Antitubercular activity against Mycobacterium tuberculosis H37Rv ATCC 27294 after 5 to 8 days by microplate alamar blue assay. It is filed as functional.
Experiment [2] deals with Mycobacterium tuberculosis. Briefly: Antimycobacterial activity against Mycobacterium tuberculosis H37Rv ATCC 27294 assessed as growth inhibition at 6.25 ug/ml after 5 to 8 days by microplate alamar blue assay relative to control. The experiment is classed as functional. Particulars: read-out: GI.

One may read the MIC as the smallest concentration in the dilution series that meets the test's criterion for growth inhibition. A lower MIC goes with a more susceptible organism.

As for `O=C1Nc2cc([N+](=O)[O-])ccc2C(=O)/C1=N/Nc1ccc(F)cc1`, the MIC in experiment [1] was below 6.25 mg/L. Besides, the inhibition of growth at 6.25 µg/mL in experiment [2] was found to be 100%.
In the same order, the values of `Cc1ccc(N/N=C2\C(=O)Nc3c(Cl)cccc3C2=O)cc1` are above 6.25 mg/L and 34%.
In experiment [1], `Cc1c(Cl)cccc1N/N=C1\C(=O)Nc2c(cccc2[N+](=O)[O-])C1=O` displayed an MIC below 6.25 mg/L. Moreover, in experiment [2], the inhibition of growth at 6.25 µg/mL is 56%.
Taken in the same sequence, the figures for `Cc1ccc(N/N=C2\C(=O)Nc3cc([N+](=O)[O-])ccc3C2=O)cc1` were below 6.25 mg/L and 92%.
Consider `O=C1Nc2c(Cl)cccc2C(=O)/C1=N/Nc1cccc([N+](=O)[O-])c1`, for which, in experiment [1], the MIC was above 6.25 mg/L. The inhibition of growth at 6.25 µg/mL in experiment [2] turned out to be 24%.
Taken in the same sequence, the figures for `COc1ccc(N/N=C2\C(=O)c3cccc([N+](=O)[O-])c3N(C)C2=O)c(C)c1` were above 6.25 mg/L and 40%.
For `Cc1cccc(C)c1N/N=C1\C(=O)Nc2c(cccc2[N+](=O)[O-])C1=O`, the MIC in experiment [1] was above 6.25 mg/L. The inhibition of growth at 6.25 µg/mL in experiment [2] is 22%.
`O=C1Nc2c(ccc(Cl)c2Cl)C(=O)/C1=N/Nc1ccccc1` displayed an MIC in experiment [1] below 6.25 mg/L. Moreover, the inhibition of growth at 6.25 µg/mL in experiment [2] was 85%.
In the same order, the values of `O=C1Nc2c(ccc(Cl)c2Cl)C(=O)/C1=N/Nc1cccc(Cl)c1` are below 6.25 mg/L and 82%.
Taken in the same sequence, the figures for `O=C1Nc2cc(Cl)ccc2C(=O)/C1=N/Nc1cccc(Cl)c1` were above 6.25 mg/L and 47%.
In experiment [1], `COc1ccccc1N/N=C1\C(=O)Nc2cc([N+](=O)[O-])ccc2C1=O` yielded an MIC below 6.25 mg/L. Moreover, the inhibition of growth at 6.25 µg/mL in experiment [2] was 96%.
In the same order, the values of `COc1ccc(N/N=C2\C(=O)Nc3ccc(Cl)cc3C2=O)cc1` are below 6.25 mg/L and 55%.
In the same order, the values of `O=C1Nc2cc(Cl)ccc2C(=O)/C1=N/Nc1ccc([N+](=O)[O-])cc1` are above 6.25 mg/L and 1%.
In the same order, the values of `O=C1Nc2c(cccc2[N+](=O)[O-])C(=O)/C1=N/Nc1ccc(F)cc1` are above 6.25 mg/L and 46%.
Regarding `O=C1Nc2c(ccc(Cl)c2Cl)C(=O)/C1=N/Nc1cccc([N+](=O)[O-])c1`, in experiment [1], the MIC is above 6.25 mg/L. Also, the inhibition of growth at 6.25 µg/mL in experiment [2] is 27%.
As for `CN1C(=O)/C(=N\Nc2ccccc2[N+](=O)[O-])C(=O)c2ccccc21`, the MIC in experiment [1] was below 6.25 mg/L. Also, the inhibition of growth at 6.25 µg/mL in experiment [2] amounted to 94%.
On to `CN1C(=O)/C(=N\Nc2ccc(Cl)cc2)C(=O)c2ccccc21`, for which, in experiment [1], the MIC was above 6.25 mg/L. In addition, the inhibition of growth at 6.25 µg/mL in experiment [2] was 38%.
Taken in the same sequence, the figures for `O=C1Nc2c(cccc2[N+](=O)[O-])C(=O)/C1=N/Nc1cccc(Cl)c1` were below 6.25 mg/L and 82%.
Taken in the same sequence, the figures for `O=C1Nc2ccc(Cl)cc2C(=O)/C1=N/Nc1ccc([N+](=O)[O-])cc1` were below 6.25 mg/L and 91%.
Regarding `Cc1ccc(N/N=C2\C(=O)Nc3c(Cl)ccc(Cl)c3C2=O)cc1`, the MIC in experiment [1] is above 6.25 mg/L. Further, in experiment [2], the inhibition of growth at 6.25 µg/mL is 11%.
In the same order, the values of `Cc1cccc(N/N=C2\C(=O)Nc3c(cccc3[N+](=O)[O-])C2=O)c1C` are above 6.25 mg/L and 48%.
In turn, `O=C1Nc2ccc(Cl)cc2C(=O)/C1=N/Nc1ccc(F)cc1` yielded an MIC in experiment [1] below 6.25 mg/L. Besides, the inhibition of growth at 6.25 µg/mL in experiment [2] is 71%.
Compound `COc1ccc2c(c1)C(=O)/C(=N/Nc1ccccc1)C(=O)N2` registered an MIC in experiment [1] above 6.25 mg/L. Besides, in experiment [2], the inhibition of growth at 6.25 µg/mL stood at 0%.
In the same order, the values of `O=C1Nc2c(Cl)ccc(Cl)c2C(=O)/C1=N/Nc1ccc(F)cc1` are below 6.25 mg/L and 80%.
Taken in the same sequence, the figures for `O=C1Nc2cc([N+](=O)[O-])ccc2C(=O)/C1=N/Nc1cccc(Cl)c1Cl` were above 6.25 mg/L and 21%.
In turn, `O=C1Nc2c(cccc2[N+](=O)[O-])C(=O)/C1=N/Nc1ccc(F)c(Cl)c1` came in with an MIC in experiment [1] below 6.25 mg/L. Also, in experiment [2], the inhibition of growth at 6.25 µg/mL was 85%.
Consider `Cc1cccc(N/N=C2\C(=O)Nc3cc(C)ccc3C2=O)c1`, for which the MIC in experiment [1] is below 6.25 mg/L. For the same compound, the inhibition of growth at 6.25 µg/mL in experiment [2] was found to be 76%.
In the same order, the values of `COc1ccc(N/N=C2\C(=O)Nc3c(cccc3[N+](=O)[O-])C2=O)c(C)c1` are above 6.25 mg/L and 45%.
With `Cc1cccc(C)c1N/N=C1\C(=O)Nc2ccc(Cl)cc2C1=O`, the MIC in experiment [1] was above 6.25 mg/L. The inhibition of growth at 6.25 µg/mL in experiment [2] was determined as 13%.
Taken in the same sequence, the figures for `Cc1cccc(N/N=C2\C(=O)Nc3ccccc3C2=O)c1` were above 6.25 mg/L and 42%.
Consider `Cc1c(Cl)cccc1N/N=C1\C(=O)Nc2cc([N+](=O)[O-])ccc2C1=O`, for which, in experiment [1], the MIC is below 6.25 mg/L. For the same compound, the inhibition of growth at 6.25 µg/mL in experiment [2] was 98%.
In the same order, the values of `Cc1cccc(N/N=C2\C(=O)Nc3c(ccc(Cl)c3Cl)C2=O)c1` are below 6.25 mg/L and 62%.
In the same order, the values of `O=C1Nc2c(Cl)cccc2C(=O)/C1=N/Nc1ccccc1` are below 6.25 mg/L and 100%.
As to `O=C1Nc2c(cccc2[N+](=O)[O-])C(=O)/C1=N/Nc1ccc(Cl)c(Cl)c1`, in experiment [1], the MIC is below 6.25 mg/L. For the same compound, in experiment [2], the inhibition of growth at 6.25 µg/mL stood at 79%.
Taken in the same sequence, the figures for `CC(=O)c1ccc(N/N=C2\C(=O)Nc3c(Cl)cccc3C2=O)cc1` were above 6.25 mg/L and 24%.
Taken in the same sequence, the figures for `CN1C(=O)/C(=N\Nc2ccc(Cl)c(Cl)c2)C(=O)c2ccccc21` were above 6.25 mg/L and 10%.
With `CC(=O)c1ccc(N/N=C2\C(=O)Nc3c(cccc3[N+](=O)[O-])C2=O)cc1`, the MIC in experiment [1] was below 6.25 mg/L. The inhibition of growth at 6.25 µg/mL in experiment [2] turned out to be 89%.
In the same order, the values of `Cc1cccc(N/N=C2\C(=O)Nc3c(cccc3[N+](=O)[O-])C2=O)c1` are below 6.25 mg/L and 95%.
In the same order, the values of `O=C1Nc2cc(Cl)ccc2C(=O)/C1=N/Nc1ccc(F)cc1` are below 6.25 mg/L and 50%.
Taken in the same sequence, the figures for `O=C1Nc2cc([N+](=O)[O-])ccc2C(=O)/C1=N/Nc1ccc(Br)cc1` were below 6.25 mg/L and 100%.
As for `O=C1Nc2c(cccc2[N+](=O)[O-])C(=O)/C1=N/Nc1ccccc1-c1ccccc1`, the MIC in experiment [1] is above 6.25 mg/L. Besides, the inhibition of growth at 6.25 µg/mL in experiment [2] is 35%.
In the same order, the values of `COc1ccc(N/N=C2\C(=O)Nc3ccc(Cl)cc3C2=O)c(C)c1` are above 6.25 mg/L and 12%.
Taken in the same sequence, the figures for `O=C1Nc2c(Cl)cccc2C(=O)/C1=N/Nc1ccc(Cl)c(Cl)c1` were above 6.25 mg/L and 21%.
For the compound `O=C1Nc2cc(Cl)ccc2C(=O)/C1=N/Nc1ccccc1`, in experiment [1], the MIC is below 6.25 mg/L. The inhibition of growth at 6.25 µg/mL in experiment [2] turned out to be 76%.
Taken in the same sequence, the figures for `O=C1Nc2c(cccc2[N+](=O)[O-])C(=O)/C1=N/Nc1ccc(Cl)cc1` were below 6.25 mg/L and 61%.
Taken in the same sequence, the figures for `CC(=O)c1ccc(N/N=C2/C(=O)c3ccccc3N(C)C2=O)cc1` were above 6.25 mg/L and 20%.
In experiment [1], `O=C1Nc2ccc(Cl)cc2C(=O)/C1=N/Nc1ccccc1[N+](=O)[O-]` gave an MIC below 6.25 mg/L. Further, in experiment [2], the inhibition of growth at 6.25 µg/mL worked out at 64%.
In the same order, the values of `COc1ccc(N/N=C2\C(=O)Nc3c(ccc(Cl)c3Cl)C2=O)cc1` are above 6.25 mg/L and 14%.
In the case of `O=C1Nc2ccccc2C(=O)/C1=N/Nc1ccccc1`, in experiment [1], the MIC was below 6.25 mg/L. In addition, the inhibition of growth at 6.25 µg/mL in experiment [2] was 97%.
The compound `Cc1ccc2c(c1)NC(=O)/C(=N\Nc1ccccc1Cl)C2=O` yielded an MIC in experiment [1] above 6.25 mg/L. Further, in experiment [2], the inhibition of growth at 6.25 µg/mL was determined as 31%.
In turn, `CC(=O)c1ccc(N/N=C2\C(=O)Nc3ccc(Cl)cc3C2=O)cc1` had an MIC in experiment [1] above 6.25 mg/L. Also, the inhibition of growth at 6.25 µg/mL in experiment [2] was found to be 29%.
Taken in the same sequence, the figures for `CC(=O)c1ccc(N/N=C2\C(=O)Nc3cc(Cl)ccc3C2=O)cc1` were above 6.25 mg/L and 6%.
The compound `Cc1cccc2c1NC(=O)/C(=N\Nc1cccc(Cl)c1)C2=O` showed an MIC in experiment [1] above 6.25 mg/L. In addition, the inhibition of growth at 6.25 µg/mL in experiment [2] was 39%.
With `O=C1Nc2ccc(Cl)cc2C(=O)/C1=N/Nc1ccc(Cl)c(Cl)c1`, the MIC in experiment [1] is below 6.25 mg/L. Further, the inhibition of growth at 6.25 µg/mL in experiment [2] was 95%.
Taken in the same sequence, the figures for `COc1ccc(N/N=C2\C(=O)Nc3cc(Cl)ccc3C2=O)cc1` were above 6.25 mg/L and 4%.
The compound `O=C1Nc2ccc(Cl)cc2C(=O)/C1=N/Nc1cccc([N+](=O)[O-])c1` had an MIC in experiment [1] below 6.25 mg/L. Besides, in experiment [2], the inhibition of growth at 6.25 µg/mL was 96%.
The compound `Cc1cccc(N/N=C2\C(=O)Nc3cc([N+](=O)[O-])ccc3C2=O)c1` yielded a minimum inhibitory concentration (MIC) in experiment [1] above 6.25 mg/L. In addition, the inhibition of growth at 6.25 µg/mL in experiment [2] turned out to be 19%.
In the same order, the values of `O=C1Nc2ccccc2C(=O)/C1=N/Nc1cccc(Cl)c1` are above 6.25 mg/L and 41%.
Take `O=C1Nc2c(ccc(Cl)c2Cl)C(=O)/C1=N/Nc1cccc(F)c1`: in experiment [1], the minimum inhibitory concentration (MIC) was below 6.25 mg/L. Moreover, the inhibition of growth at 6.25 µg/mL in experiment [2] was 80%.
Taken in the same sequence, the figures for `Cc1ccccc1N/N=C1/C(=O)c2ccccc2N(C)C1=O` were below 6.25 mg/L and 97%.
For `COc1ccccc1N/N=C1\C(=O)Nc2c(cccc2[N+](=O)[O-])C1=O`, the MIC in experiment [1] is above 6.25 mg/L. For the same compound, in experiment [2], the inhibition of growth at 6.25 µg/mL was determined as 32%.
Taken in the same sequence, the figures for `Cc1ccc(N/N=C2\C(=O)Nc3c(ccc(Cl)c3Cl)C2=O)cc1` were below 6.25 mg/L and 54%.
In experiment [1], `CN1C(=O)/C(=N\Nc2ccc([N+](=O)[O-])cc2)C(=O)c2ccccc21` came in with an MIC above 6.25 mg/L. Moreover, the inhibition of growth at 6.25 µg/mL in experiment [2] is 20%.
`O=C1Nc2c(cccc2[N+](=O)[O-])C(=O)/C1=N/Nc1ccccc1[N+](=O)[O-]` displayed an MIC in experiment [1] below 6.25 mg/L. In experiment [2], the inhibition of growth at 6.25 µg/mL turned out to be 80%.
